# Measurements reported in patent publication US11299519B2, “Host cells and methods using a repressor polypeptide and an inducible promoter for gene expression” (The Regents of the University of California, priority 2015, dated 2022).
# Experiments:
# [1] = test system: p1-promoter; test: RFP expression from the p1-promoter in various bacteria; format: cell-based, Three different gram-negative bacteria; settings: same plasmid in all strains (BBR origin of replication)
# From the text: All strains contain the same plasmid (BBR origin of replication).
# The functionality of Eil-promoters is not restricted to E. coli and offers an expression platform in various host organisms. […] In addition to bacterial promoters, the eil operators can be used to control expression from phage promoters such as T7. […] RFP was expressed from a T7 promoter controlled either by an IPTG-inducible lac operator or an acridine orange-inducible eil operator. The chromosomal T7-RNA polymerase was expressed from a Lac-promoter in both cases (in E. coli BL21-DE3). In the future, T7 RNA-polymerase expression could also be controlled by an Eil-promoter. […] All strains contain the same plasmid (BBR origin of replication).
# [2] = test system: Eil-promoter; test: Induction of Eil-promoter (EilR-regulated, reporter gene) by hydrophobic cations; format: cell-based, E. coli; settings: preliminary results for the leuco-form
# From the text: A series of EilR-regulated promoters have been identified by creating a library that contains an eil-operator and randomized core promoter sequences coupled to a reporter gene. […] Subsequent optimizations have led to several Eil-promoters with improved properties.
# The Eil- or Qac-promoters are useful as tools for monitoring real time oxidative stress. […] An Eil-promoter or Qac-promoter coupled with a reporter gene can serve as a signal-amplifying sensor for real time in vivo oxidative stress, which could be useful to monitor and understand physiological stress reactions. Similarly, heme catalyzes the oxidation of the colorless leucocrystal violet to its purple cation by reducing hydrogen peroxide. This colorful radical reaction is utilized in forensics to uncover removed blood stains. Crystal violet induces Eil-biosensors at concentrations that are much lower than the eye can detect. Such a sensor could be a sensitive tool for blood detection in forensic analyses.
# Numbers in brackets indicate the concentration applied for induction (in μM).
# [3] = test system: KmrR; test: RFP expression from an Eil-promoter regulated by EilR homologue KmrR; format: cell-based, Klebsiella BRL6-2; settings: in E. coli; eilO consensus operator
# From the text: (§1) The EilR homologues SmvR (from Salmonella typhimurium) and KmrR (from Klebsiella BRL6-2) regulate RFP expression from an Eil-promoter in E. coli. Like EilR, these repressors bind to the eilO consensus operator and are induced e.g. by crystal violet.
# [4] = test system: SmvR; test: RFP expression from an Eil-promoter regulated by EilR homologue SmvR; format: cell-based, Salmonella typhimurium; settings: in E. coli; eilO consensus operator
# From the text: as §1
Structure (SMILES),RFP expression from the p1-promoter on induction [1],induction of Eil-promoters [2],induction of KmrR-regulated RFP expression from an Eil-promoter [3],induction of SmvR-regulated RFP expression from an Eil-promoter [4]
CN(C)c1ccc2cc3ccc(N(C)C)cc3nc2c1 [acridine orange],express RFP from the p1-promoter,–,–,–
CN(C)c1ccc(C(=C2C=CC(=[N+](C)C)C=C2)c2ccc(N(C)C)cc2)cc1 [crystal violet],–,induces Eil-promoters at nanomolar concentrations,induced,induced
CN(C)c1ccc(C(c2ccc(N(C)C)cc2)c2ccc(N(C)C)cc2)cc1 [leucocrystal violet],–,does not cause induction,–,–
